Values quoted from earlier work in patent EP1121935B1, “Pharmaceutical composition containing a small or medium size peptide” (Patents Exploitation Company B.V., priority 2000, dated 2001).

Experiments:
[1] = solutions free from preservative; polystyrene, polypropylene and glass tubes; 24 hours at room temperature
nasal ciliar motility = settings: reported by Hofmann T. et al., 1998

Substance | loss of active principle because of the adsorption by the walls [1] | effect on nasal ciliar motility (nasal ciliar motility)
1-(3-mercaptopropanoic acid)-8-D-argininevasopressin [desmopressin] | about the half | –
benzalkonium chloride | – | irreversible suppression of the nasal ciliar motility
